# Laboratory results reported in US20210346319A1, “Pharmaceutical Compositions of R-(+)-Propranolol in Enantiomeric Excess and Therapeutic Uses Related Thereto” (Emory University, priority 2018, published 2021).
# Entries after “also recorded” stand apart in the source; their conditions may differ.
# Assays:
# bEnd.3 tumors = test: RNAseq analysis of R-propranolol vs vehicle treated tumors; format: in vivo, mice
# Text: In order to gain an understanding of the mechanism of action of R-propranolol in vivo, vehicle and R-propranolol treated tumors were subjected to RNA seq analysis. […] The APOA1 gene expresses a protein called apolipoprotein A-I (apoA-I). ApoA-I is a component of high-density lipoprotein (HDL) which transports cholesterol and phospholipids through the bloodstream for excretion by the liver beneficial for cardiovascular health.
# VEGF = VEGF levels in infants receiving propranolol for hemangioma of infancy; format: in vivo, human; conditions: saliva of infants with hemangiomas, hydrochloride
# Text: (§1) Genetic studies of hemangiomas have not elucidated a common genetic cause, as opposed to other vascular lesions, such as vascular malformations and angiosarcomas, in which genetic mutations have been found. Cytokines have been found in hemangiomas of infancy, including vascular endothelial growth factor (VEGF) and Angiopoietin-2 (Ang-2). The role of these factors in hemangiomas are not fully understood, especially given that Ang-2 can serve as a growth factor or mediate endothelial apoptosis depending on the context. A series of infants were studied who received propranolol for treatment of hemangioma of infancy.
# Angiopoietin-2 (Ang-2) = test: Ang-2 levels in infants receiving propranolol for hemangioma of infancy; format: in vivo, human; conditions: saliva of infants with hemangiomas
# Text: as §1
# Angptl4 [1] = test: Downregulation of VEGF/Angptl4 by propranolol and its isomers (summary statements); format: cell-based
# hemangioma of infancy = conditions: infant who received propranolol for cardiac disease; cited from earlier work
# Angptl4 [2] = test: Gene array of treated hemangioma stem cells (HemSC); format: cell-based, human; conditions: for Angptl4 gene regulation on gene array: HemSC cells vs vehicle control; for effectiveness in downregulating Angptl4 compared with S-propranolol: hemangioma stem cells
# bEnd.3 hemangioma = bEnd.3 hemangioma xenograft growth in nude mice; format: in vivo; conditions: p=0.014
# Protocol: The xenograft model was developed and approved by the Institutional Animal Care and Use Committee of Emory University. bEnd.3 cell suspension in growth medium was inoculated in the right flank of athymic Nu/Nu nude male mice purchased from the Charles River Laboratories at 2.5×10^5 cells/mouse (n=5 per group). Control or R-propranolol was administered intraperitoneally five times a week at 3.5 mg/kg/day. R-propranolol treatment was initiated on the second day after the tumor cell injection.
# To elucidate the signaling cascade independent of beta blockade in hemangioma formation, tie-2-deficient mouse hemangioma cell line, bEnd.3 was xenografted and treated with or without R-propranolol, isomer deficient in beta blockade activity.
# Angptl4 [3] = test: Western blot analysis of Angptl4 in HemSC cells
# bEnd.3 hemangioma cells = test: Seahorse analysis of respiration in bEnd.3 cells; conditions: for basal respiration / spare respiratory capacity: FIG. 5B; for maximal respiration: compared to vehicle control
# Angptl4 [4] = conditions: bEnd.3 cells, FIG. 1
# [5] = RNAseq treated vs vehicle tumors
compound,measurement,setting,value
"CC(C)NCC(O)COc1cccc2ccccc12.Cl (racemic) [propranolol, (±)-1-[(1-methylethyl)amino]-3-(1-naphthalenyloxy)-2-propanol hydrochloride]",N4RA1 (Nur77) expression,bEnd.3 tumors; [5],upregulated
same,VEGF levels,VEGF,reduced
same,VEGF levels,VEGF; listed as Propranolol,downregulates
same,Ang-2 levels,Angiopoietin-2 (Ang-2),not
same,VEGF/Angplt4 downregulation,Angptl4 [1],coordinately downregulates
same,"hemangioma of infancy, clinical course",hemangioma of infancy,regression
"CC(C)NC[C@@H](O)COc1cccc2ccccc12 [R-propranolol, (R)-(+)-1-(isopropylamino)-3-(naphthalen-1-yloxy)propan-2-ol]",Angptl4 gene regulation on gene array,Angptl4 [2],downregulated; also recorded: most regulated gene
same,effectiveness in downregulating Angptl4 compared with S-propranolol,Angptl4 [2],far more effective
same,effectiveness in downregulating Angptl4 compared with S-propranolol,Angptl4 [2]; listed as R(+)-propranolol,More Effective
same,tumor volume,"bEnd.3 hemangioma; 3.5 mg/kg/day intraperitoneally five times a week, control 593.32, n=5 per group",37.60 mm3
same,effect on bEnd.3 hemangioma tumor growth in vivo,"bEnd.3 hemangioma; xenograft in mice, within two weeks of tumor development",active in vivo; also recorded: significant tumor volume reduction; also recorded: significantly reduced the tumor volume; also recorded: inhibited the growth; also recorded: significant inhibition of tumor growth
same,APOA1 expression,bEnd.3 tumors; [5],induced; also recorded: upregulated
same,BHMT expression,bEnd.3 tumors; [5],most highly regulated gene; also recorded: upregulated; also recorded: most upregulated
same,Egr-1 expression,bEnd.3 tumors; [5],elevated; also recorded: upregulated
same,choline metabolism pathway (KEGG analysis),bEnd.3 tumors; [5],the pathway affected; also recorded: highly affected
same,Eno4 expression,"bEnd.3 tumors; RNAseq, FIG. 4",downregulated
same,Faim2 expression,"bEnd.3 tumors; RNAseq, FIG. 4",downregulated
same,Hunk expression,"bEnd.3 tumors; RNAseq, FIG. 4",downregulated
same,number of RNA transcripts significantly downregulated,"bEnd.3 tumors; RNAseq, FIG. 4",Seven
same,number of RNA transcripts upregulated,"bEnd.3 tumors; RNAseq, FIG. 4",seventeen
same,activity against Angptl4 compared with S-propranolol,Angptl4 [1]; endothelial cells,greater downregulation; also recorded: more active
same,"Angptl4 expression, Western blot",Angptl4 [3]; FIG. 1,reduced expression of Angptl4
same,"Angptl4 expression, Western blot","Angptl4 [3]; FIG. 1, listed as R-isomer",suppressed Angptl4
same,respiration compared with S-propranolol,bEnd.3 hemangioma cells; FIG. 5A,stronger respiration
same,basal respiration,bEnd.3 hemangioma cells,increased
same,spare respiratory capacity,bEnd.3 hemangioma cells,increased
same,maximal respiration,bEnd.3 hemangioma cells; FIG. 5A,substantially increased
same,Angptl4 protein expression,Angptl4 [4],markedly reduced
"CC(C)NCC(O)COc1cccc2ccccc12 (stereo not drawn) [S-propranolol, reference compound]",Angptl4 gene regulation on gene array,Angptl4 [2],downregulated; also recorded: most regulated gene
same,"Angptl4 expression, Western blot",Angptl4 [3]; FIG. 1,not
same,"Angptl4 expression, Western blot","Angptl4 [3]; FIG. 1, listed as S isomer",had no effect
same,basal respiration,bEnd.3 hemangioma cells,increased
same,spare respiratory capacity,bEnd.3 hemangioma cells,increased
same,maximal respiration,bEnd.3 hemangioma cells; FIG. 5A,substantially increased
same,Angptl4 protein expression,Angptl4 [4],slightly elevated
CN(C)c1ccc(C(=C2C=CC(=[N+](C)C)C=C2)c2ccc(N(C)C)cc2)cc1 [gentian violet],Angptl4 gene regulation on gene array,Angptl4 [2],downregulated; also recorded: most regulated gene
same,"Angptl4 expression, Western blot",Angptl4 [3]; FIG. 1,suppressed Angptl4
same,"Angptl4 expression, Western blot","Angptl4 [3]; FIG. 1, listed as Gentian violet",downregulated Angptl4
same,Angptl4 protein expression,Angptl4 [4],much reduced
